# Measurements: patent US20140249135A1, “PIM KINASE INHIBITORS AND METHODS OF THEIR USE” (NOVARTIS AG, priority 2007, published 2014)
# Where two headings read alike, the source gives them in different places.
# Key:
# Assay type in all cases: biochemical
# Pim1 kinase = Pim1 kinase (Homo sapiens, UniProt P11309); assay: Pim1 ATP depletion assay; settings: Pim1 ATP depletion assay;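 further: Luciferase-luciferin luminescence readout of residual ATP after PIM1 transfers phosphate to a peptide substrate, 40 µM ATP added, reaction run to roughly half ATP consumption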
# Pim2 kinase = Pim2 kinase (Homo sapiens, UniProt Q9P1W9); assay: Pim2 ATP depletion assay;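 further: Luciferase-based luminescent readout of ATP remaining after PIM2 phosphorylates a BAD peptide, final 5 nM enzyme, 4 µM ATP, 10 µM peptide, 2.5% DMSO, run to roughly half ATP consumption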
# Pim3 kinase = Pim3 kinase (Homo sapiens, UniProt Q86V86); assay: Pim3 ATP depletion assay
# Chain of Pim2 kinase (Q9P1W9 whole entry): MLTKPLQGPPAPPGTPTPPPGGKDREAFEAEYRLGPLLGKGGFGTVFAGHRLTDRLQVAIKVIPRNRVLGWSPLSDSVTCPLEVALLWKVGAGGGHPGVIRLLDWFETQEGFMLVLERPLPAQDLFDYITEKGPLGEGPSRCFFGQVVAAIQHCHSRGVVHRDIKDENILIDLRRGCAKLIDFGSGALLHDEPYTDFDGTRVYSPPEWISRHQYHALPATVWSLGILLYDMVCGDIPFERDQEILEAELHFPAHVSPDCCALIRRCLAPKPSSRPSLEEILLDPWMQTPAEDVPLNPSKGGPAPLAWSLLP
# Chain of Pim1 kinase (P11309 whole entry): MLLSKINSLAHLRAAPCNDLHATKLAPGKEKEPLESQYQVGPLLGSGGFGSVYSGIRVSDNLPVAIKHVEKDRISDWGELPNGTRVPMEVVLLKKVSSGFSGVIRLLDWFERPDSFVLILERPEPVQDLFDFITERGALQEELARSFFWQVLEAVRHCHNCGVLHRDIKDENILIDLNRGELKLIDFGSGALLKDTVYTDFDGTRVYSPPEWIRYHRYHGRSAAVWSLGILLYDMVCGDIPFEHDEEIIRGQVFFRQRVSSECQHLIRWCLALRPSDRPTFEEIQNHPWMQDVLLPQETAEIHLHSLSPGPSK
compound,measurement,setting,value
"NC(=O)c1ccc(-c2ccc(N)c(C(=O)Nc3cnccc3N3CCC[C@H](N)C3)n2)nc1 [Example 691, 5′-Amino[2,2′]bipyridinyl-5,6′-dicarboxylic acid 5-amide 6′-[(3-amino-3,4,5,6-tetrahydro-2H-[1,4′]bipyridinyl-3′-yl)-amide]]",IC50,Pim1 kinase; read-out: PIM1 IC50,< 1 µM
same,IC50,Pim2 kinase; read-out: PIM2 IC50,< 1 µM
same,IC50,Pim3 kinase; read-out: PIM3 IC50,< 1 µM
"NC(=O)c1ccnc(-c2ccc(N)c(C(=O)Nc3cnccc3N3CCC[C@H](N)C3)n2)c1 [Example 704, 5′-Amino-[2,2′]bipyridinyl-4,6′-dicarboxylic acid 4-amide 6′-[(3-amino-3,4,5,6-tetrahydro-2H-[1,4′]bipyridinyl-3′-yl)-amide]]",IC50,Pim1 kinase; read-out: PIM1 IC50,< 1 µM
same,IC50,Pim2 kinase; read-out: PIM2 IC50,< 1 µM
same,IC50,Pim3 kinase; read-out: PIM3 IC50,< 1 µM
"Nc1cc(-c2ccncc2NC(=O)c2nc(-c3c(F)cccc3F)ccc2N)ccn1 [Example 617, 3-amino-N-(2′-amino-4,4′-bipyridin-3-yl)-6-(2,6-difluorophenyl)pyridine-2-carboxamide]",IC50,Pim1 kinase; read-out: PIM1 IC50,< 1 µM
same,IC50,Pim2 kinase; read-out: PIM2 IC50,< 1 µM
same,IC50,Pim3 kinase; read-out: PIM3 IC50,< 1 µM
"Nc1ccc(-c2sccc2Cl)nc1C(=O)Nc1cnccc1N1CCC[C@H](N)C1 [Example 474, 3-Amino-6-(3-chloro-thiophen-2-yl)-pyridine-2-carboxylic acid (3-amino-3,4,5,6-tetrahydro-2H-[1,4′]bipyridinyl-3′-yl)-amide]",IC50,Pim1 kinase; read-out: IC50 (μM) PIM1,< 1 µM
same,IC50,Pim2 kinase; read-out: IC50 (μM) PIM2,< 1 µM
same,IC50,Pim3 kinase; read-out: IC50 (μM) PIM3,< 1 µM
"Nc1ccc(-c2cccc(Br)c2)nc1C(=O)Nc1cnccc1N1CCC[C@H](N)C1 [Example 459, 3-Amino-6-(3-bromo-phenyl)-pyridine-2-carboxylic acid (3-amino-3,4,5,6-tetrahydro-2H-[1,4′]bipyridinyl-3′-yl)-amide]",IC50,Pim1 kinase; read-out: IC50 (μM) PIM1,< 1 µM
same,IC50,Pim2 kinase; read-out: IC50 (μM) PIM2,< 1 µM
same,IC50,Pim3 kinase; read-out: IC50 (μM) PIM3,< 1 µM
"Nc1ccc(-c2cccc(-n3cccn3)n2)nc1C(=O)Nc1cnccc1N1CCC[C@H](N)C1 [Example 703, 5-Amino-6′-pyrazol-1-yl-[2,2′]bipyridinyl-6-carboxylic acid (3-amino-3,4,5,6-tetra-hydro-2H-[1,4′]bipyridinyl-3′-yl)-amide]",IC50,Pim1 kinase; read-out: PIM1 IC50,< 1 µM
same,IC50,Pim2 kinase; read-out: PIM2 IC50,< 1 µM
same,IC50,Pim3 kinase; read-out: PIM3 IC50,< 1 µM
"Nc1ccc(-c2ccccc2F)nc1C(=O)Nc1cnccc1N1CCCC(O)C1 (stereo not drawn) [Example 661, 3-Amino-6-(2-fluoro-phenyl)-pyridine-2-carboxylic acid (3-hydroxy-3,4,5,6-tetrahydro-2H-[1,4′]bipyridinyl-3′-yl)-amide]",IC50,Pim1 kinase; read-out: PIM1 IC50,< 1 µM
same,IC50,Pim2 kinase; read-out: PIM2 IC50,< 1 µM
same,IC50,Pim3 kinase; read-out: PIM3 IC50,< 1 µM
"CC(C)COc1cncc(-c2nc(C(=O)Nc3cnccc3N3CCC[C@H](N)C3)c(N)cc2F)n1 [Example 741, 3Amino-5-fluoro-6-(6-isobutoxy-pyrazin-2-yl)-pyridine-2-carboxylic acid (3-amino-3,4,5,6-tetrahydro-2H-[1,4′]bipyridinyl-3′-yl)-amide]",IC50,Pim1 kinase; read-out: PIM1 IC50,< 1 µM
same,IC50,Pim2 kinase; read-out: PIM2 IC50,< 1 µM
same,IC50,Pim3 kinase; read-out: PIM3 IC50,< 1 µM
"CC(C)NC(=O)c1ccc(F)c(-c2ccc(N)c(C(=O)Nc3cnccc3N3CCC(F)(F)C(N)C3)n2)c1 (stereo not drawn) [Example 255, 3-Amino-6-(2-fluoro-5-isopropylcarbamoyl-phenyl)-pyridine-2-carboxylic acid (3-amino-4,4-difluoro-3,4,5,6-tetra-hydro-2H-[1,4′]bipyridinyl-3′-yl)-amide]",IC50,Pim1 kinase; read-out: IC50 (μM) PIM1,< 1 µM
same,IC50,Pim2 kinase; read-out: IC50 (μM) PIM2,< 1 µM
same,IC50,Pim3 kinase; read-out: IC50 (μM) PIM3,< 1 µM
"CC(C)Oc1ccc(F)c(-c2ccc(N)c(C(=O)Nc3cnccc3N3CCC[C@H](O)C3)n2)c1F [Example 652, 3-Amino-6-(2,6-difluoro-3-isopropoxy-phenyl)-pyridine-2-carboxylic acid (3-hydroxy-3,4,5,6-tetrahydro-2H-[1,4′]bi-pyridinyl-3′-yl)-amide]",IC50,Pim1 kinase; read-out: PIM1 IC50,< 1 µM
same,IC50,Pim2 kinase; read-out: PIM2 IC50,< 1 µM
same,IC50,Pim3 kinase; read-out: PIM3 IC50,< 1 µM
"Cc1ccc(-c2ccc(N)c(C(=O)Nc3cnccc3-c3cc(N)nc(C)n3)n2)c(F)c1 [Example 558, 3-Amino-6-(2-fluoro-4-methyl-phenyl)-pyridine-2-carboxylic acid [4-(6-amino-2-methyl-pyrimidin-4-yl)-pyridin-3-yl]-amide]",IC50,Pim1 kinase; read-out: PIM1 IC50,< 1 µM
same,IC50,Pim2 kinase; read-out: PIM2 IC50,< 1 µM
same,IC50,Pim3 kinase; read-out: PIM3 IC50,< 1 µM
"Cc1ccnc(-c2ccc(N)c(C(=O)Nc3cnccc3N3CCC[C@H](N)C3)n2)c1 [Example 724, 5-Amino-4′-methyl-[2,2′]bi-pyridinyl-6-carboxylic acid (3-amino-3,4,5,6-tetrahydro-2H-[1,4′]bipyridinyl-3′-yl)-amide]",IC50,Pim1 kinase; read-out: PIM1 IC50,< 1 µM
same,IC50,Pim2 kinase; read-out: PIM2 IC50,< 1 µM
same,IC50,Pim3 kinase; read-out: PIM3 IC50,< 1 µM
"COc1cccnc1-c1ccc(N)c(C(=O)Nc2cnccc2N2CCC[C@H](N)C2)n1 [Example 697, 5-Amino-3′-methoxy-[2,2′]bi-pyridinyl-6-carboxylic acid (3-amino-3,4,5,6-tetrahydro-2H-[1,4′]bipyridinyl-3′-yl)-amide]",IC50,Pim1 kinase; read-out: PIM1 IC50,< 1 µM
same,IC50,Pim2 kinase; read-out: PIM2 IC50,1 to 10 µM
same,IC50,Pim3 kinase; read-out: PIM3 IC50,< 1 µM
"Nc1cnc(-c2c(F)cccc2F)nc1C(=O)Nc1cnccc1N1CC[C@@H](F)[C@H](N)C1 (stereo in doubt) [Example 256, 5-Amino-2-(2,6-difluoro-phenyl)-pyrimidine-4-carboxylic acid (3-amino-4-fluoro-3,4,5,6-tetrahydro-2H-[1,4′]bipyridinyl-3′-yl)-amide]",IC50,Pim1 kinase; read-out: IC50 (μM) PIM1,< 1 µM
same,IC50,Pim2 kinase; read-out: IC50 (μM) PIM2,< 1 µM
same,IC50,Pim3 kinase; read-out: IC50 (μM) PIM3,< 1 µM
"CC(C)NC(=O)c1ccc(F)c(-c2ccc(N)c(C(=O)Nc3cnccc3N3CC[C@@H](O)[C@H](N)C3)n2)c1F [Example 732, 3-Amino-6-(2,6-difluoro-3-isopropylcarbamoyl-phenyl)-pyridine-2-carboxylic acid (3-amino-4-hydroxy-3,4,5,6-tetra-hydro-2H-[1,4′]bipyridinyl-3′-yl)-amide]",IC50,Pim1 kinase; read-out: PIM1 IC50,< 1 µM
same,IC50,Pim2 kinase; read-out: PIM2 IC50,< 1 µM
same,IC50,Pim3 kinase; read-out: PIM3 IC50,< 1 µM
"Nc1ccc(C2CC2)nc1C(=O)Nc1cnccc1N1CCC[C@H](N)C1 [Example 638, 3-amino-N-{4-[(3S)-3-aminopiperidin-1-yl]pyridin-3-yl}-6-cyclopropyl-pyridine-2-carboxamide]",IC50,Pim1 kinase; read-out: PIM1 IC50,< 1 µM
same,IC50,Pim2 kinase; read-out: PIM2 IC50,< 1 µM
same,IC50,Pim3 kinase; read-out: PIM3 IC50,< 1 µM
"CCOc1ccc(F)c(-c2nc(C(=O)Nc3cnccc3N3CCC[C@H](N)C3)c(N)cc2F)c1F [Example 495, 3-Amino-6-(3-ethoxy-2,6-difluoro-phenyl)-5-fluoro-pyridine-2-carboxylic acid (3-amino-3,4,5,6-tetrahydro-2H-[1,4′]bipyridinyl-3′-yl)-amide]",IC50,Pim1 kinase; read-out: IC50 (μM) PIM1,< 1 µM
same,IC50,Pim2 kinase; read-out: IC50 (μM) PIM2,< 1 µM
same,IC50,Pim3 kinase; read-out: IC50 (μM) PIM3,< 1 µM
"CCCCOc1ccc(F)c(-c2ccc(N)c(C(=O)Nc3cnccc3N3CCC[C@H](N)C3)n2)c1F [Example 466, 3-Amino-6-(3-butoxy-2,6-difluoro-phenyl)-pyridine-2-carboxylic acid (3-amino-3,4,5,6-tetrahydro-2H-[1,4′]bipyridinyl-3′-yl)-amide]",IC50,Pim1 kinase; read-out: IC50 (μM) PIM1,< 1 µM
same,IC50,Pim2 kinase; read-out: IC50 (μM) PIM2,< 1 µM
same,IC50,Pim3 kinase; read-out: IC50 (μM) PIM3,< 1 µM
"COc1cc(N)nc(-c2ccncc2NC(=O)c2nc(-c3c(F)cccc3F)ccc2N)c1 [Example 622, 3-Amino-6-(2,6-difluoro-phenyl)-pyridine-2-carboxylic acid (6-amino-4-methoxy-[2,4′]bipyridinyl-3′-yl)-amide]",IC50,Pim1 kinase; read-out: PIM1 IC50,< 1 µM
same,IC50,Pim2 kinase; read-out: PIM2 IC50,< 1 µM
same,IC50,Pim3 kinase; read-out: PIM3 IC50,< 1 µM
"Nc1ccc(-c2ccc(Cl)s2)nc1C(=O)Nc1cnccc1N1CCC[C@H](N)C1 [Example 450, 3-Amino-6-(5-chloro-thiophen-2-yl)-pyridine-2-carboxylic acid (3-amino-3,4,5,6-tetrahydro-2H-[1,4′]bipyridinyl-3′-yl)-amide]",IC50,Pim1 kinase; read-out: IC50 (μM) PIM1,< 1 µM
same,IC50,Pim2 kinase; read-out: IC50 (μM) PIM2,< 1 µM
same,IC50,Pim3 kinase; read-out: IC50 (μM) PIM3,< 1 µM
